Experiments:
HS181 cells = assay: Single cell survival / cell adhesion, 1 day after plating (Example 1); assay type: cell-based, human; conditions: for single cell survival / cells remaining attached 24 hours after plating: O3 medium without any additives, completely dissociated HS181 cells
Experimental: Human ES cells were cultured on r-laminin-521-coated laboratory dishes in chemically defined O3 medium (described in Rodin et al., Nature Biotechnol., vol. 28, pp. 611-615 (2010)) at 37° C. in 5% CO2. Cells were routinely passed once every 10-12 days by exposure to Trypsin-EDTA solution (GIBCO Invitrogen) for 5 minutes at 37° C. They were then gently pipetted to break into single-cell suspension and defined trypsin inhibitor (GIBCO Invitrogen) was added. The cell suspension was centrifuged […], the supernatant discarded, the cell pellet resuspended in prewarmed O3 medium, and cells were then passed through a 40 μm sieve. After that cells were plated on new r-laminin-521-coated dishes at a concentration 30 Kcells/cm^2 (1:25-1:30 split ratio). Cells were fed once a day with fresh medium prewarmed in an incubator for 1 hour, except for the first day after a passage, when only a few drops of fresh medium were added. Control cells of the same line were cultured on Matrigel (BD Biosciences) in O3 medium as described in Rodin et al., Nature Biotechnol., vol. 28, pp. 611-615 (2010). Control cells were passaged in pieces.
Ninety-six-well tissue cell culture plates were coated overnight at 4° C. with sterile solutions of the ECM proteins mouse LN-111 (Invitrogen), human recombinant LN-511, and human recombinant LN-521, all at a concentration of 30 μg/ml (5 μg/cm^2). For control cells, BD Matrigel™ hESC qualified (BD Biosciences) was used according to the manufacturer's instructions.
The assay was performed as described (Extracellular Matrix Protocols, 2000). Briefly, 96-well plates were coated by extracellular matrix proteins as described above and blocked by O3 medium containing bovine serum albumin. The ES cells were plated at a cell density of 600 cell/mm^2 upon extracellular matrix-coated plates and were left to adhere for either 1 hour or 1 day at the cell incubator. Non-adherent cells were washed away, and adherent cells were fixed for 20 min by 5% glutaraldehyde, stained by 0.1% Crystal Violet.

hES cells [1] = assay: Cell survival assay, 24 hours (Example 2); assay type: cell-based, human; conditions: for survival of hES cells plated from single cell suspension after 24 hours: O3 medium, absence of ROCK inhibitor
Experimental: Tissue cell culture plates were coated overnight at 4° C. with sterile solutions of the ECM proteins, such as human recombinant LN-521, all at a concentration of 30 μg/ml (5 μg/cm^2). Control plates were coated with Matrigel according to the STEMCELL Technologies' instructions. Prior to use, dishes were pre-warmed in an incubator for one hour after which prewarmed O3 medium was added without additional washing of the dish. After applying a fresh LN-521 solution to a new dish, the remaining LN-521 solution could be used at least once more. All the adhesion, survival, and inhibition of survival experiments were carried out using fresh coating materials.
Briefly, 96-well plates were coated by extracellular matrix proteins as described above and blocked by O3 medium containing bovine serum albumin. The ES cells were plated at cell density of 50,000 cells/cm^2 onto extracellular matrix-coated plates and left to adhere for 1 hour in a cell incubator. After that the plates were washed 3 times with the medium to remove the non-adherent cells, and then the adherent cells were fixed for 20 minutes by 5% glutaraldehyde, stained by 0.1% Crystal Violet. (Kebo Lab, Spanga, Sweden, www.kebolab.se). After one hour and 3 washes with water, Crystal Violet was extracted with 10% acetic acid and quantified by measuring optical density at 570 nm. All the experiments were performed in quadruplicate.
The survival assay was performed as described for the cell adhesion assay above, except that the cells were left in the cell incubator for 24 hours. For inhibition of survival assay, the cells were kept in a medium with function blocking antibodies at the concentrations recommended by the manufacturer or pathway inhibitors at concentrations indicated in the text for 30 minutes, and then plated on the coated dishes. All the experiments were performed in quadruplicate.
Pluripotent hES cells express α1, α5, β1, β2 and γ1 laminin chains. To compare the adhesion and clonal survival of hES cells plated from single cell suspension to different coating substrata, hES cells growing as monolayers on LN-511 or as clusters on a feeder layer were trypsinized into single cell suspension in O3 medium and plated on cell culture dishes coated with Matrigel, LN-111, LN-511, LN-521 or a mixture of LN-511 and LN-521, in the absence or presence of a ROCK inhibitor (Y-27632) and analyzed after 24 hours.

myosin light chain (MLC) = assay: Western blot of phosphorylated myosin light chain; assay type: cell-based, human; conditions: one and six hours after plating
Experimental: HS181 cells were trypsinized into single cell suspension as described above. For inhibition experiments, the cells were kept in O3 medium with blocking antibodies or pathway inhibitors for 30 minutes and then 450K cells were plated on 35 mm dishes precoated with the appropriate matrix coating. For other experiments, same number of cells was plated directly after trypsinization. […] After two washings in ice-cold PBS, the plates with cells were snap frozen in liquid nitrogen and stored at −80° C. To prepare samples for western blots and ELISA, the plates were slowly thawed and kept on ice with 100-150 μl of lysis buffer (50 mM Tris-HCl, pH7.5, 150 mM NaCl, 0.5% deoxycholate, 0.5% SDS, 1% Triton X-100, 1% Igepal, Complete™ (Roche) and Phospho-Stop™ (Roche)) on top. Then, the cells were scraped, pipetted and sheared through a 27G ¾″ needle. After that, the cell pellets were clarified by centrifugation at 16,100 rcf for 15 minutes at 4° C. For western blots, 4-12% gradient gels were used for SDS electrophoresis and the proteins were transferred to PVDF membranes. The membrane was hybridized with the antibody of interest according to the manufacturer's instructions. Chemoluminescent HRP-substrate from Amersham Biosciences was used for visualization. For the densitometry analysis the films were scanned at 2,400 dpi and analyzed by the Chemilmager5500 program (1D-Multi Line densitometry mode). […]

[2] = test system: human embryonic stem cell; assay: Survival after dissociation into single cell suspension (description); assay type: cell-based; conditions: O3 medium; 30 Kcells/cm^2; precoated dishes
Source text: In other aspects, the present disclosure provides a new material, isolated laminin-521, which permits human embryonic stem cell survival after dissociation into single cell suspension. The stem cells were dissociated into single cell suspension by Trypsin-EDTA treatment, pelleted by centrifugation, resuspended into O3 medium, filtered through a 40 μm sieve, and plated at a density of 30 Kcells/cm^2 on cell culture dishes precoated by either isolated laminin-521, laminin-511, or Matrigel. After one day in culture, the cells plated on Matrigel died, as is known in the art.

mouse ES cells = conditions: without LIF or feeder cells; cited from earlier work
Integrin α6β1 = Integrin α6β1 (Homo sapiens, UniProt P05556+P23229); conditions: cited from earlier work
human ES cells = conditions: cited from earlier work
hES cells [3] = assay: Clonal survival of individualized hES cells (Example 4); assay type: cell-based, human; conditions: mTeSR1
Experimental: hES cells were plated in mTeSR1 medium on different coatings at a density of 250 cells per cm^2 and monitored after 5 days in culture using an alkaline phosphatase staining kit.
Next, combinations of laminin-521 and E-Cadherin were tested to determine whether the combinations could sustain clonal survival of the cells. Fixed amounts of laminin-521 were used for the cell culture dish coating in combination with titrated E-Cadherin.
Additional tests were performed to test the effects of various modifications to the mTeSR1 medium. A mixture of E-Cadherin to laminin-521 in a ratio of about 1:10 w/w was used to coat the plates. […] Time-lapse photography of the cells confirmed that laminin-521/E-Cadherin coatings facilitated cell survival through proliferation of the single cells, not through the aggregation of different cells.

Sequence of Integrin α6β1 (P23229 24-1130): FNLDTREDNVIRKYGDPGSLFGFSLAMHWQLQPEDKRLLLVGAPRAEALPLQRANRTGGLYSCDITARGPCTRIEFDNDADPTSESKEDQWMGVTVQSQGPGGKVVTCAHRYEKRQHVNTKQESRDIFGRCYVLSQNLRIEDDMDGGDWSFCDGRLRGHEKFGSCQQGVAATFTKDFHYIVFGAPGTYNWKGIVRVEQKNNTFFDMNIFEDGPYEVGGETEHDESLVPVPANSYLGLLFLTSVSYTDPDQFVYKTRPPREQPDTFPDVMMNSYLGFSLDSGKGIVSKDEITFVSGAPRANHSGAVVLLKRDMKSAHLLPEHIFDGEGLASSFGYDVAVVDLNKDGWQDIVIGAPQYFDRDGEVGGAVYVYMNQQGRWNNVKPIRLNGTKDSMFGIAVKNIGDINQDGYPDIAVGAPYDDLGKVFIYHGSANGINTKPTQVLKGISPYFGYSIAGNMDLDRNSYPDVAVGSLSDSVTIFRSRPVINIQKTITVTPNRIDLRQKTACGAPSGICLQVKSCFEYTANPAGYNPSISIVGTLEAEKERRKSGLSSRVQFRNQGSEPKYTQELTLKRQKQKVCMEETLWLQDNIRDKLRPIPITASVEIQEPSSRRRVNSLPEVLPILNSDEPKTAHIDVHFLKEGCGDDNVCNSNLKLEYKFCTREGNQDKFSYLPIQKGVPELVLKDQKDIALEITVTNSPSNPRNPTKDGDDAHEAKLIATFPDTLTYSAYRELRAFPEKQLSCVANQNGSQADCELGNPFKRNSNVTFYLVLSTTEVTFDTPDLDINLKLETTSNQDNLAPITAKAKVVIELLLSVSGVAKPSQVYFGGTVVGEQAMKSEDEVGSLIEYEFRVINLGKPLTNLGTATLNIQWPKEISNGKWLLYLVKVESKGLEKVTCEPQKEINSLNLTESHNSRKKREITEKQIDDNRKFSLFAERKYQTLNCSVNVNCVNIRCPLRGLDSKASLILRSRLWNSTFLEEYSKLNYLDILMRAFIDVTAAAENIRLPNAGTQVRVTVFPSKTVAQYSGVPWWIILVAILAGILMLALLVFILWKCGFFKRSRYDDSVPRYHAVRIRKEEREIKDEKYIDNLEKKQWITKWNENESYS
Sequence of Integrin α6β1 (P05556 21-798): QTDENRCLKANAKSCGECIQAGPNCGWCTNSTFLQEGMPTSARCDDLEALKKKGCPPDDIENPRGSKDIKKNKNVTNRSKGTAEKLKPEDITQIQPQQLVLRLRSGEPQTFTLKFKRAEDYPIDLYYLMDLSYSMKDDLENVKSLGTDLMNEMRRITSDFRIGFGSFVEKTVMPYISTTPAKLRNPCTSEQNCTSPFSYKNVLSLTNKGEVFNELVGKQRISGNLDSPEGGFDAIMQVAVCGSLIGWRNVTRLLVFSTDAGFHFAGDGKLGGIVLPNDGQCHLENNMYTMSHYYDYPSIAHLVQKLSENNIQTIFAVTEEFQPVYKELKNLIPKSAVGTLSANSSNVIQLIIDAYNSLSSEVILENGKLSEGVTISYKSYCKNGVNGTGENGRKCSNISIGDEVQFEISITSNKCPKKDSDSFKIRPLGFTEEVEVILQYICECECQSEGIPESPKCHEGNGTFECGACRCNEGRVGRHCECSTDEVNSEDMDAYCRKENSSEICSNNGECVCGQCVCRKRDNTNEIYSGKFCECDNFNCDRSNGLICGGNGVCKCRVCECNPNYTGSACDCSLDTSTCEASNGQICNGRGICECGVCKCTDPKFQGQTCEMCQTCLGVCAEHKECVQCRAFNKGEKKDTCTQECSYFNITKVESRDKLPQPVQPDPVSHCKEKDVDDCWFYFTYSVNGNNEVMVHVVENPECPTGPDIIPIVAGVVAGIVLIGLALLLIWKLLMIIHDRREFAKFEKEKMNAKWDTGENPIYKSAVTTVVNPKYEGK

## C[C@@H](N)[C@H]1CC[C@H](C(=O)Nc2ccncc2)CC1 [Y-27632, reference compound]
HS181 cells; O3 medium treated with Y-27632, 5 coatings
  cells remaining attached after one day with ROCK inhibitor: remained attached on all 5 coatings
hES cells [1]; LN-521 row: absence of ROCK inhibitor, Y-27632 row: presence of ROCK inhibitor
  cell shape of cells growing on LN-521 24 hours after plating: spindle or crescent like shape
hES cells [1]; all coating surfaces
  survival of hES cells after 24 hours in the presence of ROCK inhibitor: survived on all surfaces

## LN-111: mouse laminin-111 (Invitrogen), indicated as LN-111 if not otherwise stated
HS181 cells
  single cell survival / cells remaining attached 24 hours after plating: almost no cells remained attached
hES cells [1]
  survival of hES cells plated from single cell suspension after 24 hours: did not survive

## LN-121: human recombinant laminin with α1, β2 and γ1 chains produced in HEK293 cells
hES cells [1]
  survival of hES cells plated from single cell suspension after 24 hours: failed to survive

## LN-511: human recombinant laminin-511 coating
Myosin light chain (MLC)
  phosphorylation of MLC compared with cells on Matrigel and LN-111: even higher
[2]
  survival of hES cells plated from single cell suspension after one day in culture: in most cases on laminin-511 survived and started to proliferate
HS181 cells
  single cell survival / cells remaining attached 24 hours after plating: at a less extent
Mouse ES cells
  time of supported self-renewal of mouse ES cells: over 5 months
Integrin α6β1
  binding affinity of integrin α6β1: higher than that for LN-111
hES cells [1]
  survival of hES cells plated from single cell suspension after 24 hours: did so as single cells
Human ES cells
  time human ES cells maintain pluripotency and can generate teratomas in SCID mice: over 3 months

## albumin: albumin of the mTeSR1 medium, concentration increased 2×
hES cells [3]; laminin-521/E-Cadherin matrix
  effect of 2× increase in albumin concentration on clonal survival: significantly improved clonal survival

## human recombinant LN-111: human recombinant laminin with α1, β1 and γ1 chains produced in HEK293 cells
hES cells [1]
  survival of hES cells plated from single cell suspension after 24 hours: failed to survive

B1: E-Cadherin: epithelial-cadherin, most abundant cadherin isoform on the human ES cell surface (protein, UniProt P12830 155-882, looked up)
Cadherin-1: DWVIPPISCPENEKGPFPKNLVQIKSNKDKEGKVFYSITGQGADTPPVGVFIIERETGWLKVTEPLDRERIATYTLFSHAVSSNGNAVEDPMEILITVTDQNDNKPEFTQEVFKGSVMEGALPGTSVMEVTATDADDDVNTYNAAIAYTILSQDPELPDKNMFTINRNTGVISVVTTGLDRESFPTYTLVVQAADLQGEGLSTTATAVITVTDTNDNPPIFNPTTYKGQVPENEANVVITTLKVTDADAPNTPAWEAVYTILNDDGGQFVVTTNPVNNDGILKTAKGLDFEAKQQYILHVAVTNVVPFEVSLTTSTATVTVDVLDVNEAPIFVPPEKRVEVSEDFGVGQEITSYTAQEPDTFMEQKITYRIWRDTANWLEINPDTGAISTRAELDREDFEHVKNSTYTALIIATDNGSPVATGTGTLLLILSDVNDNAPIPEPRTIFFCERNPKPQVINIIDADLPPNTSPFTAELTHGASANWTIQYNDPTQESIILKPKMALEVGDYKINLKLMDNQNKDQVTTLEVSVCDCEGAAGVCRKAQPVEAGLQIPAILGILGGILALLILILLLLLFLRRRAVVKEPLLPPEDDTRDNVYYYDEEGGGEEDQDFDLSQLHRGLDARPEVTRNDVAPTLMSVPRYLPRPANPDEIGNFIDENLKAADTDPTAPPYDSLLVFDYEGSGSEAASLSSLNSSESDKDQDYDYLNEWGNRFKKLADMYGGGEDD
hES cells [3]; 250 cells per cm^2, 5 days, alkaline phosphatase staining
  clonal survival of individualized hES cells: Neither laminin-521 nor E-Cadherin alone permitted efficient clonal survival

Reference: patent US8415156B2, “Recombinant laminin-521” (Biolamina AB, priority 2010, dated 2013)
